In ChEMBL document CHEMBL1201862, “PubChem BioAssay data set” (2004):
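How tested: cells in 96-well plates exposed to compound for 48 hours at five concentrations. Here, GI50 denotes the concentration required for 50% inhibition of growth.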 Calls of active or inactive are those of the source. No stated cut-off is given here; in the data, active = GI50 up to about 1.1 µM and inactive = higher.

Experiments:
Test in all cases: NCI anticancer screen, dose series, 48 h
U-251 = tested on: U-251
SF-268 = tested on: SF-268
COLO 205 = tested on: COLO 205
SNB-19 = tested on: SNB-19
OVCAR-3 = tested on: OVCAR-3
Malme-3M = tested on: Malme-3M
A549 = tested on: A549
SK-MEL-5 = tested on: SK-MEL-5
SNB-75 = tested on: SNB-75
KM12 = tested on: KM12
OVCAR-5 = tested on: OVCAR-5
CCRF-CEM = tested on: CCRF-CEM
UACC-257 = tested on: UACC-257
HCT-116 = tested on: HCT-116
TK-10 = tested on: TK-10
M19-MEL = tested on: M19-MEL
HT-29 = tested on: HT-29
MDA-MB-231 = tested on: MDA-MB-231
BT-549 = tested on: BT-549
SR = tested on: SR

O=C1C2=C(c3ccccc31)C(c1ccc(F)cc1)N1C(=O)CCSC1=N2 (configuration not stated)
GI50 (U-251): > 100 µM (inactive) | GI50 (SF-268): > 100 µM (inactive) | GI50 (COLO 205): > 100 µM (inactive) | GI50 (SNB-19): > 100 µM (inactive) | GI50 (OVCAR-3): > 100 µM (inactive) | GI50 (Malme-3M): > 100 µM (inactive) | GI50 (A549): > 100 µM (inactive) | GI50 (SK-MEL-5): 60.5 µM (inactive) | GI50 (SNB-75): 24.4 µM (inactive) | GI50 (KM12): 55.1 µM (inactive) | GI50 (OVCAR-5): > 100 µM (inactive) | GI50 (CCRF-CEM): 89.5 µM (inactive) | GI50 (UACC-257): > 100 µM (inactive) | GI50 (HCT-116): 95.7 µM (inactive) | GI50 (TK-10): > 100 µM (inactive) | GI50 (M19-MEL): > 100 µM (inactive) | GI50 (HT-29): > 100 µM (inactive)

O=C(N/N=C1\CCc2ccccc21)N/N=C1\CCc2ccccc21
GI50 (U-251): > 100 µM (inactive) | GI50 (SF-268): > 100 µM (inactive) | GI50 (COLO 205): > 100 µM (inactive) | GI50 (SNB-19): > 100 µM (inactive) | GI50 (OVCAR-3): > 100 µM (inactive) | GI50 (Malme-3M): > 100 µM (inactive) | GI50 (A549): > 100 µM (inactive) | GI50 (MDA-MB-231): 12.9 µM (inactive) | GI50 (SK-MEL-5): > 100 µM (inactive) | GI50 (SNB-75): > 100 µM (inactive) | GI50 (KM12): > 100 µM (inactive) | GI50 (OVCAR-5): > 100 µM (inactive) | GI50 (BT-549): > 100 µM (inactive) | GI50 (SR): 0.055 µM (active) | GI50 (CCRF-CEM): > 100 µM (inactive) | GI50 (UACC-257): > 100 µM (inactive) | GI50 (HCT-116): > 100 µM (inactive) | GI50 (TK-10): > 100 µM (inactive) | GI50 (HT-29): > 100 µM (inactive)

Cc1ccc(S(=O)(=O)N2CCC2c2ccccc2)cc1 (configuration not stated)
GI50 (U-251): > 100 µM (inactive) | GI50 (SF-268): 82.2 µM (inactive) | GI50 (COLO 205): > 100 µM (inactive) | GI50 (SNB-19): 68.7 µM (inactive) | GI50 (OVCAR-3): 81.5 µM (inactive) | GI50 (Malme-3M): > 100 µM (inactive) | GI50 (A549): 67.5 µM (inactive) | GI50 (SK-MEL-5): 42 µM (inactive) | GI50 (SNB-75): 72.6 µM (inactive) | GI50 (KM12): 82 µM (inactive) | GI50 (CCRF-CEM): 80.4 µM (inactive) | GI50 (UACC-257): 47.3 µM (inactive) | GI50 (HCT-116): 52.8 µM (inactive) | GI50 (TK-10): > 100 µM (inactive) | GI50 (M19-MEL): > 100 µM (inactive) | GI50 (HT-29): > 100 µM (inactive)

CCCCC(=O)OC[n+]1cccc(-c2c(COC(=O)NC(C)C)c(COC(=O)NC(C)C)c3n2CCC3)c1
GI50 (U-251): 45.3 µM (inactive) | GI50 (SF-268): 24.8 µM (inactive) | GI50 (COLO 205): 72.8 µM (inactive) | GI50 (SNB-19): > 92.3 µM (inactive) | GI50 (OVCAR-3): 57.3 µM (inactive) | GI50 (Malme-3M): 32.7 µM (inactive) | GI50 (A549): 81.1 µM (inactive) | GI50 (MDA-MB-231): 62.5 µM (inactive) | GI50 (SK-MEL-5): 35.6 µM (inactive) | GI50 (SNB-75): 50 µM (inactive) | GI50 (KM12): > 100 µM (inactive) | GI50 (OVCAR-5): > 68.1 µM (inactive) | GI50 (BT-549): 28.8 µM (inactive) | GI50 (SR): 4.72 µM (inactive) | GI50 (CCRF-CEM): 7.93 µM (inactive) | GI50 (UACC-257): 44.7 µM (inactive) | GI50 (HCT-116): 37.2 µM (inactive) | GI50 (TK-10): 42.1 µM (inactive) | GI50 (HT-29): 43 µM (inactive)

O=C(CCCCCCCCC(=O)N1C(=O)CC(=O)N(c2cccc(Cl)c2)C1=S)N1C(=O)CC(=O)N(c2cccc(Cl)c2)C1=S
GI50 (U-251): 35.6 µM (inactive) | GI50 (SF-268): 57.4 µM (inactive) | GI50 (COLO 205): 37.3 µM (inactive) | GI50 (SNB-19): 33.7 µM (inactive) | GI50 (OVCAR-3): 25.2 µM (inactive) | GI50 (Malme-3M): 66.1 µM (inactive) | GI50 (A549): 32.5 µM (inactive) | GI50 (MDA-MB-231): 24.6 µM (inactive) | GI50 (SK-MEL-5): 28.7 µM (inactive) | GI50 (SNB-75): 33.3 µM (inactive) | GI50 (KM12): 40.3 µM (inactive) | GI50 (OVCAR-5): 56.6 µM (inactive) | GI50 (BT-549): 44.1 µM (inactive) | GI50 (SR): 26.1 µM (inactive) | GI50 (CCRF-CEM): 32.7 µM (inactive) | GI50 (UACC-257): 45 µM (inactive) | GI50 (HCT-116): 34.2 µM (inactive) | GI50 (TK-10): 56.9 µM (inactive) | GI50 (HT-29): 36.9 µM (inactive)

CC[C@@]1(O)C(=O)OCc2c1cc1n(c2=O)Cc2c-1nc1ccccc1c2/C=N/NC(=O)c1ccc(N)cc1
GI50 (U-251): < 0.0141 µM (active) | GI50 (SF-268): < 0.01 µM (active) | GI50 (COLO 205): 4.53 µM (inactive) | GI50 (SNB-19): 0.0175 µM (active) | GI50 (OVCAR-3): 0.714 µM (active) | GI50 (Malme-3M): 0.452 µM (active) | GI50 (A549): 0.578 µM (active) | GI50 (MDA-MB-231): 3.06 µM (inactive) | GI50 (SK-MEL-5): 0.136 µM (active) | GI50 (SNB-75): 0.0489 µM (active) | GI50 (KM12): 9.4 µM (inactive) | GI50 (OVCAR-5): 5.22 µM (inactive) | GI50 (BT-549): 0.391 µM (active) | GI50 (SR): < 0.01 µM (active) | GI50 (CCRF-CEM): < 0.01 µM (active) | GI50 (UACC-257): 6.44 µM (inactive) | GI50 (HCT-116): 0.1 µM (active) | GI50 (TK-10): 15.6 µM (inactive) | GI50 (HT-29): 4.68 µM (inactive)

CN(C)c1n/c(=N/Cc2ccncc2)ss1
GI50 (U-251): 17.9 µM (inactive) | GI50 (SF-268): 46.2 µM (inactive) | GI50 (COLO 205): 54.5 µM (inactive) | GI50 (SNB-19): > 71.4 µM (inactive) | GI50 (OVCAR-3): > 48.6 µM (inactive) | GI50 (Malme-3M): 18.5 µM (inactive) | GI50 (A549): > 10 µM (inactive) | GI50 (MDA-MB-231): 37.8 µM (inactive) | GI50 (SK-MEL-5): > 10 µM (inactive) | GI50 (SNB-75): 18.4 µM (inactive) | GI50 (KM12): > 10 µM (inactive) | GI50 (OVCAR-5): 22.6 µM (inactive) | GI50 (BT-549): 19.8 µM (inactive) | GI50 (SR): 6.4 µM (inactive) | GI50 (CCRF-CEM): 13.6 µM (inactive) | GI50 (UACC-257): > 39.7 µM (inactive) | GI50 (HCT-116): 20.5 µM (inactive) | GI50 (TK-10): > 66.2 µM (inactive) | GI50 (HT-29): 19.3 µM (inactive)

CC/C=C1\N=C(c2ccc(Cl)cc2)OC1=O
GI50 (SF-268): > 100 µM (inactive) | GI50 (COLO 205): > 100 µM (inactive) | GI50 (SNB-19): > 100 µM (inactive) | GI50 (OVCAR-3): > 100 µM (inactive) | GI50 (Malme-3M): > 100 µM (inactive) | GI50 (A549): > 100 µM (inactive) | GI50 (SNB-75): > 100 µM (inactive) | GI50 (KM12): > 100 µM (inactive) | GI50 (OVCAR-5): > 100 µM (inactive) | GI50 (CCRF-CEM): > 100 µM (inactive) | GI50 (UACC-257): > 100 µM (inactive) | GI50 (TK-10): > 100 µM (inactive) | GI50 (M19-MEL): > 100 µM (inactive) | GI50 (HT-29): > 100 µM (inactive)
